Assay results taken from patent US9993482B2, “Pharmaceutical combination comprising a class III receptor tyrosine kinase inhibitor and the alkylating histone-deacetylase inhibitor fusion molecule EDO-S101 together with its use in the treatment of cancer” (priority 2014, dated 2018).
Like-named read-outs stand apart in the source and are kept apart here.

Experiments:
[1] = tested on: multiple myeloma cell lines; conditions: in vitro; cited from earlier work
[2] = tested on: acute myeloid leukemia cell line MOLM-13; test: MOLM-13 cell survival, CellTiter-Glo, single drug testing; type: cell-based; conditions: Homo sapiens, MOLM-13, 72 h
Procedure: (§1) The acute myeloid leukemia cell line MOLM-13 (obtained from the ATCC) was cultured in media supplemented with 10% FBS at a temperature of 37° C., 5% CO2 and 95% humidity. Culture media was purchased from GIBCO, USA. The cells were plated out in 96-Well Flat Clear Bottom Black Polystyrene […] Microplates (Cat#3603, Corning®).
(§2) Equipment used was the EnVision Multi Label Reader, PerkinElmer (USA). CO2 Water Jacketed Incubator, Therma (USA). Reverse microscope, Chongguang XDS-1B, Chongqing Guangdian Corp. (Chongqing, P.R.China).
(§3) The cells were harvested respectively during the logarithmic growth period and counted with a hemocytometer.
(§4) For single drug testing, the cell concentrations were adjusted to 4.44×10^4 cells/ml with the medium supplemented with 10% FBS. 90 μl cell suspensions were added to 96-well plates, such that the final cell density was 4×10^3 cells/well. The appropriate cell density was determined and adjusted according to the results of our first test.
The next day, 10 μl (10×) of drug solution was prepared and dispensed in each well (triplicate for each drug concentration). After 72 h incubation, 100 μl CellTiter-Glow Reagent was added to each well. The contents were mixed for 2 minutes on an orbital shaker to induce cell lysis. The plate was allowed to incubate at room temperature for 10 minutes to stabilize the luminescent signal. Finally, the luminescence was recorded using an EnVision Multi Label Reader.
(§5) In order to calculate IC50, a dose-responsive curve was fitted using nonlinear regression model with a sigmoidal dose response. The formula of surviving rate is shown below, and the IC50 was automatically produced by GraphPad Prism 5.0. The surviving rate (%)=(LumTest article−LUMMedium control)/(LumNone treated−LUMMedium control)×100%.

[3] = tested on: acute myeloid leukemia cell line MOLM-13; test: MOLM-13 cell survival, CellTiter-Glo, two drug combination testing (CalcuSyn); type: cell-based; conditions: MOLM-13, 72 h, combination ratio 1:0.00264302
Procedure: as §1, §2
(§6) The cells were harvested respectively during the logarithmic growth period and counted with a hemocytometer. The cell viability is over 98% by trypan blue exclusion.
(§7) For two drug combination testing, the cell concentrations were adjusted to 5.00×10^4/ml with the medium supplemented with 10% FBS. 80 μl cell suspensions were added to 96-well plates, such that the final cell densities were 4×10^3 cells/well. The appropriate cell density was determined and adjusted according to the results of our first test.
The next day, 10 μl (10×) of each drug solution was prepared and dispense in each well simultaneously (triplicate for each concentration). After 72 h incubation, 100 μl CellTiter-Glo® Reagent was added to each well. The contents were mixed for 2 minutes on an orbital shaker to induce cell lysis. The plate was allowed to incubate at room temperature for 10 minutes to stabilize luminescent signal. Then the luminescence was recorded using EnVision Multi Label Reader.
as §5
Compound interactions were calculated by multiple drug effect analysis and performed by the median equation principle with CalcuSyn software from the mean affected fraction at each drug ratio concentration of each drug according to the methodology described by Chou and Talalay, that calculates a combination index (CI) with the following interpretation: • CI>1: antagonist effect, CI=1: additive effect and CI<1 synergistic effect.
(§8) The CI was calculated from the mean affected fraction at each drug ratio concentration of each drug.

[4] = tested on: acute myeloid leukemia cell line MV-4-11; test: MV-4-11 cell survival, CellTiter-Glo, single drug testing; type: cell-based; conditions: Homo sapiens, MV4-11, 72 h
Procedure: Culture media was purchased from GIBCO, USA.
as §2, §3, §4
The next day, 10 μl (10×) of drug solution was prepared and dispensed in each well (triplicate for each drug concentration). […] The contents were mixed for 2 minutes on an orbital shaker to induce cell lysis. The plate was allowed to incubate at room temperature for 10 minutes to stabilize the luminescent signal. Finally, the luminescence was recorded using an EnVision Multi Label Reader.
In order to calculate IC50, a dose-responsive curve was fitted using nonlinear regression model with a sigmoidal dose response. The formula of surviving rate is shown below, and the IC50 was automatically produced by GraphPad Prism 5.0.

[5] = tested on: acute myeloid leukemia cell line MV-4-11; test: MV-4-11 cell survival, CellTiter-Glo, two drug combination testing (CalcuSyn); type: cell-based; conditions: MV-4-11, 72 h, combination ratio 1:0.00120494
Procedure: The acute myeloid leukemia cell line MV-4-11 (obtained from the ATCC) was cultured in media supplemented with 10% fetal bovine serum (FBS) at a temperature of 37° C., 5% CO2 and 95% humidity. Culture media was purchased from GIBCO, USA. The cells were plated out in 96-Well Flat Clear Bottom Black Polystyrene TC-Treated Microplates (Cat#3603, Corning®).
as §2, §6, §7
The next day, 10 μl (10×) of each drug solution was prepared and dispense in each well simultaneously (triplicate for each concentration). After 72 h incubation, 100 μL […]-GLO® Reagent was added to each well. The contents were mixed for 2 minutes on an orbital shaker to induce cell lysis. The plate was allowed to incubate at room temperature for 10 minutes to stabilize luminescent signal. Then the luminescence was recorded using EnVision Multi Label Reader.
In order to calculate IC50, a dose-responsive curve was fitted using nonlinear regression model with a sigmoidal dose response. The formula of surviving rate is shown below, and the IC50 was automatically produced by GraphPad Prism 5.0. The surviving rate (%)=(LumTest article−LUMMedium control)/(LUMNone treated−LUMMedium control)×100%.
Compound interactions were calculated by multiple drug effect analysis and performed by the median equation principle with CalcuSyn software from the mean affected fraction at each drug ratio concentration of each drug according to the methodology described by Chou and Talalay (Chou et al., Adv. Enzyme Regul., 22, 27-55 (1984)), that calculates a combination index (CI) with the following interpretation: • CI>1: antagonist effect, CI=1: additive effect and CI<1 synergistic effect.
as §8

Structure (SMILES) | activity relative to bendamustin (times greater) [1] | IC50 ([2]; FIG. 3 single drug test using different doses (at 1:2 serial dilutions)) | IC50 ([2]; FIG. 3 single drug test with cisplatin control) | DRI values at ED75 [3] | DRI values at ED90 [3] | IC50 [4] | DRI values at ED75 [5] | DRI values at ED90 [5] | IC50 ([2]; FIG. 3 single drug test using different doses (at 1:2 serial dilutions), read-out: IC50) | IC50 ([2]; FIG. 3 single drug test with cisplatin control, read-out: IC50) | IC50 ([4]; read-out: IC50)
Cn1c(CCCCCCC(=O)NO)nc2cc(N(CCCl)CCCl)ccc21 [EDO-S101] | 35-100 | 1720 nM | 708 nM | 5.925 | 8.534 | 668 nM | 1.368 | 1.482 | – | – | –
CC(C)(C)c1cc(NC(=O)Nc2ccc(-c3cn4c(n3)sc3cc(OCCN5CCOCC5)ccc34)cc2)no1 [quizartinib, reference compound] | – | – | – | 3.215 | 6.645 | – | 6.146 | 10.760 | 4.55 nM | 2.11 nM | 0.804 nM
